Test results reported in patent EP4603105A1, “PHARMACEUTICAL COMPOSITION CONTAINING CYCLIC COMPOUND HAVING SELECTIVE KRAS INHIBITORY EFFECT AGAINST HRAS AND NRAS” (CHUGAI SEIYAKU KABUSHIKI KAISHA, priority 2022, dated 2024).
Where a SMILES comes first, the peptide text is derived from it. Bridges are numbered along the chain shown (N, C = ends). [ ]: non-standard residue; d: D form. The star is where a group is joined. hPhe(3-Cl-4-CF3) = N[C@@H](CCc1ccc(C(F)(F)F)c(Cl)c1)C(=O)O; NPrPhe(4-CF3) = CCCN[C@@H](Cc1ccc(C(F)(F)F)cc1)C(=O)O; Pro(4-spirocPr) = O=C(O)[C@@H]1CC2(CC2)CN1; NMeGly(cPent) = CN[C@H](C(=O)O)C1CCCC1; Pro(4,4-F2) = O=C(O)[C@@H]1CC(F)(F)CN1; NMeD = CN[C@@H](CC(=O)O)C(=O)O; NMeL = CN[C@@H](CC(C)C)C(=O)O; Morpholide = C1CN(*)CCO1; NMeA = CN[C@@H](C)C(=O)O; Ac5c = NC1(C(=O)O)CCCC1; Aze = O=C(O)[C@@H]1CCN1; NcPrGly = O=C(O)CNC1CC1; Sar = CNCC(=O)O

How the values were obtained:
[1] = target: GDP-bound NRAS wild-type protein (Homo sapiens, UniProt P01111); experiment: Binding to NRAS by surface plasmon resonance (SPR), KD and KD ratio to KRAS
GDP-bound NRAS wild-type protein, sequence (P01111 whole entry): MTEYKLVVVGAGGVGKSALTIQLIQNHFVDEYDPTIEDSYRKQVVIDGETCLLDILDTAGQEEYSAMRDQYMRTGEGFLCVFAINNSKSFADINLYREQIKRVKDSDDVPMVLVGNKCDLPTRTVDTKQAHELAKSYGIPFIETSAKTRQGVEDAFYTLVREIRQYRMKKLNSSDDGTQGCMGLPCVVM
Outline: (§1)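 SPR, 30°C: Avi-biotin RAS·GDP captured via Biotin CAPture (~100–300 RU); running buffer HBS pH 7.4, 1 mM DTT, 10 mM MgCl2, 0.01% Tween 20, 10 µM GDP, 4% DMSO. Single-cycle kinetics, 100 µL/min, 75 s injections; 1:1 model → KD.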

[2] = target: HRAS wild-type protein (Homo sapiens, UniProt P01112); experiment: Binding to HRAS by surface plasmon resonance (SPR), KD and KD ratio to KRAS
HRAS wild-type protein, sequence (P01112 whole entry): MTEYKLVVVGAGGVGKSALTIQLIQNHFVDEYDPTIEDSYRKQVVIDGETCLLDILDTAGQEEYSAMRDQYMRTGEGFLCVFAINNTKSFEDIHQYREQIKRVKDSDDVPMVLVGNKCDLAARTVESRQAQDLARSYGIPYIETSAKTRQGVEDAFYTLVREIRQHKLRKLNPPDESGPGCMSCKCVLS
Outline: as §1

[3] = tested on: human lung cancer strain NCI-H441; type: cell-based
Outline: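 Proliferation was scored by […] measured after the reagent was added to cultures kept at 37°C in 5% carbon dioxide.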

[4] = ratio of KD for GDP-bound NRAS wild-type protein to KD for KRAS
[5] = ratio of KD for HRAS wild-type protein to KD for KRAS
[6] = ratio of the KD value with respect to GDP-bound NRAS wild-type protein to the KD value with respect to KRAS
[7] = ratio of the KD value with respect to HRAS wild-type protein to the KD value with respect to KRAS

| SMILES | NRAS /KRAS [1, 4] | HRAS /KRAS [2, 5] | IC50 [3] [nM] | NRAS /KRAS [1, 6] | HRAS /KRAS [2, 7] | NRAS /KRAS ([1]; ratio of KD value for GDP-bound NRAS wild-type protein to KD value for KRAS (SPR)) | HRAS /KRAS ([2]; ratio of KD value for HRAS wild-type protein to KD value for KRAS (SPR)) |
| --- | --- | --- | --- | --- | --- | --- | --- |
| CCCN1CC(=O)N(C)[C@H]2C/C=C\CCN(C2=O)[C@@H](Cc2ccc(C(F)(F)F)cc2)C(=O)N(C)CC(=O)N[C@@H](CCc2cc(F)c(C(F)(F)F)c(F)c2)C(=O)N2C[C@H](OCC)C[C@H]2C(=O)NC2(CCC2)C(=O)N(C)[C@@H](C2CCCC2)C(=O)N(C)[C@H](C(=O)N(C)C)CC(=O)N(C)[C@@H](CC)C(=O)N[C@@H]([C@@H](C)CC)C1=O [PP1053] | A (a compound having 10 or more and less than 20 is denoted as A) | A (a compound having 10 or more and less than 20 is denoted as A) | 67.8 | – | – | – | – |
| CCC[C@H]1C(=O)N[C@@H]([C@@H](C)CC)C(=O)N(C)CC(=O)N(C)[C@H]2C/C=C\CCN(C2=O)[C@@H](Cc2ccc(C(F)(F)F)cc2)C(=O)N(C)CC(=O)N[C@@H](CCc2cc(F)c(C(F)(F)F)c(F)c2)C(=O)N(C)[C@@H](COC)C(=O)NC2(CC(C)(C)C2)C(=O)N(C)[C@@H](C2CCCC2)C(=O)N(C)[C@H](C(=O)N(C)C)CC(=O)N1C [PP1936] | – | – | 12.3 | AA (a compound having 20 or more is denoted as AA) | A (a compound having 10 or more and less than 20 is denoted as A) | – | – |
| CCCN1C(=O)CN(C)C(=O)CN(C2CC2)C(=O)[C@H]([C@@H](C)CC)NC(=O)[C@H](CC(C)C)N(C)C(=O)C[C@@H](C(=O)N2CCOCC2)N(C)C(=O)[C@H](C2CCCC2)N(C)C(=O)C2(CCCC2)NC(=O)[C@@H]2CCCN2C(=O)[C@H](CCc2ccc(C(F)(F)F)c(Cl)c2)NC(=O)CN(C)C(=O)[C@@H]1Cc1ccc(C(F)(F)F)cc1 [PP0252] ([NMeL]I[NcPrGly][Sar][NPrPhe(4-CF3)][Sar][hPhe(3-Cl-4-CF3)]P[Ac5c][NMeGly(cPent)][NMeD]-Morpholide; lactam N-11) | B (a compound having 3 or more and less than 10 is denoted as B) | B (a compound having 3 or more and less than 10 is denoted as B) | 19.4 | – | – | – | – |
| CCC[C@H]1C(=O)N[C@@H]([C@@H](C)CC)C(=O)N(C)CC(=O)N(C)[C@H]2C/C=C\CCN(C2=O)[C@@H](Cc2ccc(C)cc2)C(=O)N(C)CC(=O)N[C@@H](CCc2ccc(C(F)(F)F)c(Cl)c2)C(=O)N2C[C@H](OCC)C[C@H]2C(=O)NC2(CC(C)(C)C2)C(=O)N(C)[C@@H](CC(C)C)C(=O)N(C)[C@H](C(=O)N(C)C)CC(=O)N1C [PP2224] | – | – | 15.4 | A (a compound having 10 or more and less than 20 is denoted as A) | A (a compound having 10 or more and less than 20 is denoted as A) | – | – |
| CCCN1C(=O)[C@@H]2CCN2C(=O)CN(C)C(=O)[C@H]([C@@H](C)CC)NC(=O)[C@H](CC(C)C)N(C)C(=O)C[C@@H](C(=O)N(C)C)NC(=O)[C@H](C2CCCC2)N(C)C(=O)C2(CCCC2)NC(=O)[C@@H]2CC(F)(F)CN2C(=O)[C@H](CCc2ccc(C(F)(F)F)c(Cl)c2)NC(=O)CN(C)C(=O)[C@@H]1Cc1ccc(C(F)(F)F)cc1 [PP0387] ([NMeL]I[Sar][Aze][NPrPhe(4-CF3)][Sar][hPhe(3-Cl-4-CF3)][Pro(4,4-F2)][Ac5c][NMeGly(cPent)]D-NMe2; lactam N-11) | – | – | 20 | C (A compound having a KD ratio of 0.1 or more and less than 3 is denoted as C) | B (a compound having 3 or more and less than 10 is denoted as B) | – | – |
| CCC[C@H]1C(=O)N[C@@H]([C@@H](C)CC)C(=O)N(C)CC(=O)N(C)[C@H]2C/C=C\CCN(C2=O)[C@@H](Cc2ccc(C)cc2)C(=O)N(C)CC(=O)N[C@@H](CCc2ccc3c(C)cn(C)c3c2)C(=O)N2C[C@H](OCC)C[C@H]2C(=O)NC2(CC(C)(C)C2)C(=O)N(C)[C@@H](C2CCCC2)C(=O)N(C)[C@H](C(=O)N(C)C)CC(=O)N1C [PP2899] | A (a compound having 10 or more and less than 20 is denoted as A) | B (a compound having 3 or more and less than 10 is denoted as B) | 18.8 | – | – | – | – |
| CCO[C@@H]1C[C@H]2C(=O)NC3(CC(C)(C)C3)C(=O)N(C)[C@@H](C(CC)CC)C(=O)N(C)[C@H](C(=O)N(C)C)CC(=O)N(C)[C@@H](CC3CCC3)C(=O)N[C@@H]([C@@H](C)CC)C(=O)N(C)CC(=O)N(C)[C@H]3C/C=C\CCN(C3=O)[C@@H](Cc3ccc(C)cc3)C(=O)N(C)CC(=O)N[C@@H](CCc3ccc(C(F)(F)F)c(Cl)c3)C(=O)N2C1 [PP2156] | – | – | 20.6 | AA (a compound having 20 or more is denoted as AA) | A (a compound having 10 or more and less than 20 is denoted as A) | – | – |
| CCCN1C(=O)[C@@H]2CCN2C(=O)[C@H](C)N(C)C(=O)[C@H]([C@@H](C)CC)NC(=O)[C@H](CC(C)C)N(C)C(=O)C[C@@H](C(=O)N2CCOCC2)N(C)C(=O)[C@H](C2CCCC2)N(C)C(=O)C2(CCCC2)NC(=O)[C@@H]2CC3(CC3)CN2C(=O)[C@H](CCc2ccc(C(F)(F)F)c(Cl)c2)NC(=O)CN(C)C(=O)[C@@H]1Cc1ccc(C(F)(F)F)cc1 [PP0282] ([NMeL]I[NMeA][Aze][NPrPhe(4-CF3)][Sar][hPhe(3-Cl-4-CF3)][Pro(4-spirocPr)][Ac5c][NMeGly(cPent)][NMeD]-Morpholide; lactam N-11) | C (A compound having a KD ratio of 0.1 or more and less than 3 is denoted as C) | C (A compound having a KD ratio of 0.1 or more and less than 3 is denoted as C) | 3.9 | – | – | – | – |
| CCO[C@@H]1C[C@H]2C(=O)NC3(CC(F)(F)C3)C(=O)N(C)[C@@H](C3CCCC3)C(=O)N3CCC[C@@H]3CC(=O)N(C)[C@@H](CC3CC3)C(=O)N[C@@H]([C@@H](C)CC)C(=O)N(C)CC(=O)N(C)[C@H]3C/C=C\CCN(C3=O)[C@@H](Cc3ccc(C(F)(F)F)cc3)C(=O)N(C)CC(=O)N[C@@H](CCc3cc(F)c(C(F)(F)F)c(F)c3)C(=O)N2C1 [PP1615] | – | – | 20.9 | – | – | B (a compound having 3 or more and less than 10 is denoted as B) | B (a compound having 3 or more and less than 10 is denoted as B) |
| CC[C@H](C)[C@@H]1NC(=O)[C@H](CC(C)C)N(C)C(=O)C[C@@H](C(=O)N(C)C)N(C)C(=O)[C@H](C2CCCC2)N(C)C(=O)C2(CCC2)NC(=O)[C@@H]2CC(F)(F)CN2C(=O)[C@H](CCc2cc(F)c(C(F)(F)F)c(F)c2)NC(=O)CN(C)C(=O)[C@H](Cc2ccc(C(F)(F)F)cc2)N2CCCCC[C@@H](C2=O)N(C)C(=O)CN(C)C1=O [PP0466] | – | – | 22.6 | B (a compound having 3 or more and less than 10 is denoted as B) | B (a compound having 3 or more and less than 10 is denoted as B) | – | – |
| CCC[C@H]1C(=O)N[C@@H]([C@@H](C)CC)C(=O)N(C)CC(=O)N(C)[C@H]2C/C=C\CCN(C2=O)[C@@H](Cc2ccc(C(F)(F)F)cc2)C(=O)N(C)CC(=O)N[C@@H](CCc2ccc(C(F)(F)F)c(C3CC3)c2)C(=O)N2C[C@H](OCC)C[C@H]2C(=O)NC2(CC(C)(C)C2)C(=O)N(C)[C@@H](C2CCCC2)C(=O)N(C)[C@H](C(=O)N(C)C)CC(=O)N1C [PP2852] | B (a compound having 3 or more and less than 10 is denoted as B) | B (a compound having 3 or more and less than 10 is denoted as B) | 8.7 | – | – | – | – |
